The values that follow come from patent US8372847B2, “Pyrazinone modulator of corticotropin-releasing factor receptor activity” (Bristol-Myers Squibb Company, priority 2008, dated 2013).

Assay [1] deals with Male Sprague-Dawley rats. The assay is described as follows: Situational anxiety behavioral model in rats (latency to exit dark cylinder into open field). The class given is in vivo, rat. Conditions: for lowest effective dose (decrease of exit latency): PO, 60 minutes before testing. The source says:
Situational Anxiety Behavioral Studies in Rats. (S)-4-(1-Cyclopropyl-2-methoxyethyl)-6-(6-(difluoromethoxy)-2,5-dimethylpyridin-3-ylamino)-5-oxo-4,5-dihydropyrazine-2-carbonitrile has been evaluated in a situational anxiety model to evaluate its anxiolytic potential. In this model, rats are placed in a small, darkened chamber located in an unfamiliar open field. Vehicle-treated rats spend most of the time within the chamber, consistent with a heightened state of anxiety [Takahashi L. K. et al, Behav. Neurosci. 103: 648-654, (1989)]. This model is sensitive to anxiolytics, including benzodiazepines such as chlordiazepoxide [Yang X-M. et al, J. Pharmacol. Exp. Ther. 255: 1064-1070, (1990)]. In addition, previous CRF1 antagonists, such as DMP696 and DMP904 [McElroy J. F. et al., Psychopharmacology 165: 86-92, (2002); Lelas S. et al., J. Pharmacol. Exp. Ther. 309: 293-302, (2004)] were effective this model. The effects of (S)-4-(1-cyclopropyl-2-methoxyethyl)-6-(6-(difluoromethoxy)-2,5-dimethylpyridin-3-ylamino)-5-oxo-4,5-dihydropyrazine-2-carbonitrile were compared with those of anxiolytic standards chlordiazepoxide (Librium®) and diazepam (Valium®) in this model. Male Sprague-Dawley rats weighing 180-300 g were purchased from Charles River Laboratories (Wilmington, Mass.). The rats were housed individually in suspended wire cages in colony rooms maintained at a constant temperature (21±2° C.) and humidity (50±10%). The rooms were illuminated 12 hours per day. The rats had ad libitum access to food and water throughout the studies. Behavioral studies were conducted between 0600 and 1300 h. Animals were maintained in accordance with the guidelines of the Animal Care and Use Committee of the Bristol-Myers Squibb Company, the “Guide for Care and Use of Laboratory Animals” (Institute of Animal Laboratory Resources, 1996), and the guidelines published in the National Institutes of Health Guide for the Care and Use of Laboratory Animals. Research protocols were approved by the Bristol-Myers Squibb Company Animal Care and Use Committee. All compounds were prepared in 0.25% methylcellulose and administered PO. Chlordiazepoxide, diazepam, and desipramine were purchased from Sigma Chemical Company. (S)-4-(1-Cyclopropyl-2-methoxyethyl)-6-(6-(difluoromethoxy)-2,5-dimethylpyridin-3-ylamino)-5-oxo-4,5-dihydropyrazine-2-carbonitrile was dosed in the volume of 2 ml/kg. All standards were dosed in the volume of 2 ml/kg. For all tests, data were analyzed by analysis of variance, followed by Dunnett's t-tests for individual comparisons. The significance value was set at 0.05. The data are presented in the text and figures as mean±standard error of the mean (SEM). Male Sprague-Dawley rats were habituated to handling and dosing the day before testing. On the day of testing, all compounds were administered PO by gavage 60 minutes before behavioral testing. To initiate testing, each animal was placed in a small galvanized steel cylinder (14 cm length, 10 cm diameter), which was placed lengthwise against one wall of an illuminated open field (106 cm length×92 cm width×50 cm height). The open field was illuminated by a 60-W incandescent bulb and illumination was titrated by a powerstat transformer to a 30-lux reading at the entrance to the cylinder. Behavior was assessed for 15 minutes by a trained observer unaware of treatment assignment. The latency of the animal to exit the cylinder, defined by the placement of all four paws into the open field, and explore the open field was recorded (in seconds). […] The Plexiglas chamber and the cylinder were cleaned with 1.0% glacial acetic acid between animals to prevent olfactory cues from influencing the behavior of subsequently tested animals. Following behavioral testing, animals were sacrificed and plasma samples and brains were taken for analysis of plasma exposure and central receptor occupancy.

Assay [2] has as its system Male Sprague-Dawley rats. The settings on record: previous CRF1 antagonists, literature (McElroy 2002; Lelas 2004); cited from earlier work.
[3] abbreviates: 3.0 mg/kg PO, benzodiazepine standard studies.
Setting [4] is: 10 mg/kg PO, benzodiazepine standard studies.

Consider `CN1C(=O)CN=C(c2ccccc2)c2cc(Cl)ccc21` [diazepam], for which the “decrease in exit latency relative to vehicle-treated controls” value was determined as 62% in the assay with Male Sprague-Dawley rats [1] (1.0 mg/kg PO, benzodiazepine standard study); 69% in the assay on Male Sprague-Dawley rats [1] (setting [3]); 91% in the assay with Male Sprague-Dawley rats [1] (setting [4]). In addition, the “lowest effective dose (decrease of exit latency)” value in the assay on Male Sprague-Dawley rats [1] is 1.0 mg/kg.

Take `CCC(CC)Nc1cc(C)nc2c(-c3ccc(OC)cc3C)c(C)nn12` [DMP904]: the “effectiveness in the situational anxiety model” value with Male Sprague-Dawley rats [2] is recorded as “effective”.

For `CNC1=Nc2ccc(Cl)cc2C(c2ccccc2)=[N+]([O-])C1` [chlordiazepoxide], the “decrease in exit latency relative to vehicle-treated controls” value in the assay with Male Sprague-Dawley rats [1] (setting [3]) turned out to be 58%; in the assay on Male Sprague-Dawley rats [1] (setting [4]), 97%; in the assay on Male Sprague-Dawley rats [1] (30 mg/kg PO, benzodiazepine standard study), 72%; in the assay with Male Sprague-Dawley rats [1] (100 mg/kg PO, benzodiazepine standard study) it was 54%. In addition, the “lowest effective dose (decrease of exit latency)” value with Male Sprague-Dawley rats [1] was determined as 3.0 mg/kg.
